From US12173018B2, “Penicillin-binding protein inhibitors” (priority 2018, dated 2024)
In brackets after ≈: the same amount, converted by molar mass. Like-named read-outs stand apart in the source and are kept apart here.

Experiments:
[1] = tested on: E. coli DH5α empty pLBII vector control strain; test: microbe, parasite or virus in culture; format: cell-based, Escherichia coli; conditions: Escherichia coli, read-out: Microbiological Activity (MIC in mg/L), E. coli DH5α/pLBII
Procedure: Briefly, cryo-preserved bacterial cultures of challenge strains are streaked for isolation on appropriate agar medium, in this case Mueller Hinton II agar. Following incubation to allow growth of the colonies, plates are sealed with parafilm and stored refrigerated for up to two weeks. For preparation of assay inoculum and to ensure low variability, at least 5 colonies are picked from the agar plates with an inoculating loop and aseptically transferred to a culture tube containing 3 mL of Mueller-Hinton Broth (supplemented with divalent cations to required levels based on Manufacturers' certification). The broth culture is grown for 3-5 hours at 37° C. with shaking at 200 rpm. Meanwhile, 2-fold serial dilutions of test compounds are conducted in a 96 well plate with a final volume of 75 μL per well at 2-fold the final desired concentration. After the dilution plates are set up the growing cultures are then diluted in a cuvette containing MH II broth and the optical density is measured at 600 nm. The Inoculum is diluted such that 75 μL of this culture in Mueller-Hinton Broth results in a starting bacterial concentration of 5×10^5 CFU/mL when added to the dilution plates. The plates are incubated for 16-20 hours at 37° C. The MIC values are read visually as the lowest concentration well with no bacterial growth.
To determine if test compounds were affected by CTX-M15, the most abundant extended spectrum […] in clinical settings worldwide, the inhibition of the growth of an engineered strain of Escherichia coli harboring CTX-M15 was tested. This strain was constructed by cloning the gene encoding CTX-M15 into the NdeI and BamHI restriction endonuclease sites of plasmid pLBII, placing the gene(s) under the control of the Lac promoter. The constructed expression plasmid for CTX-M15 was used to transform competent E. coli DH5α cells to make the engineered strain, including an empty pLBII vector control strain. The classic cell based broth microdilution MIC assay was employed as described above with the addition of control antibiotics, known to be degraded by β-lactamases (Ceftazidime, piperacillin and piperacillin+tazobactam).

E. coli PBP3 = E. coli PBP3 (Escherichia coli (strain K12), UniProt P0AD68); test: E. coli PBP3 Bocillin-FL fluorescence polarization competition binding assay
E. coli PBP3, sequence (P0AD68 whole entry): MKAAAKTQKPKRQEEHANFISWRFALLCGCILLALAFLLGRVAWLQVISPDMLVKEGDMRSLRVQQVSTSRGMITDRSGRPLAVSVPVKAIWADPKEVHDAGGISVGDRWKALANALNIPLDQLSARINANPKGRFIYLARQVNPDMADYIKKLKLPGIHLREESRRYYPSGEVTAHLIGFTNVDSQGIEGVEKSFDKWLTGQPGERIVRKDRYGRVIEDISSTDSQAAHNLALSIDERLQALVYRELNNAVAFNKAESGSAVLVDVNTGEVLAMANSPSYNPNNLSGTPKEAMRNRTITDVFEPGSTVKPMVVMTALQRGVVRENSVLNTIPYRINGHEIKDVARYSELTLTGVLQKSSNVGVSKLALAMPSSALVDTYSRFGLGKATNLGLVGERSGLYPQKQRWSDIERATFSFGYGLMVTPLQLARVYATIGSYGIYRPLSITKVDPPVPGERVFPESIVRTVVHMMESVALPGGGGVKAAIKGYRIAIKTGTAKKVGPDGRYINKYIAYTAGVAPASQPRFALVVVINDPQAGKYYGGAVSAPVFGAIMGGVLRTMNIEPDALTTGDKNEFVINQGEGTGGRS
How it was run: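 Steps: purified PBP (1.5 μM final) mixed with compound (0–1000 μM) in 50 mM Hepes pH 8.0, 300 mM NaCl, 5% glycerol; Bocillin-FL added to 0.1 μM; FP (ex 490, em 520 nm) followed for 60 min. Concentration reducing Bocillin-FL binding reported as EC50.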

E. coli PBP1b = E. coli PBP1b (Escherichia coli (strain K12), UniProt P02919); test: Radioligand competition binding assay with 14C-labeled boronic acid probe, PBP1b
E. coli PBP1b, sequence (P02919 whole entry): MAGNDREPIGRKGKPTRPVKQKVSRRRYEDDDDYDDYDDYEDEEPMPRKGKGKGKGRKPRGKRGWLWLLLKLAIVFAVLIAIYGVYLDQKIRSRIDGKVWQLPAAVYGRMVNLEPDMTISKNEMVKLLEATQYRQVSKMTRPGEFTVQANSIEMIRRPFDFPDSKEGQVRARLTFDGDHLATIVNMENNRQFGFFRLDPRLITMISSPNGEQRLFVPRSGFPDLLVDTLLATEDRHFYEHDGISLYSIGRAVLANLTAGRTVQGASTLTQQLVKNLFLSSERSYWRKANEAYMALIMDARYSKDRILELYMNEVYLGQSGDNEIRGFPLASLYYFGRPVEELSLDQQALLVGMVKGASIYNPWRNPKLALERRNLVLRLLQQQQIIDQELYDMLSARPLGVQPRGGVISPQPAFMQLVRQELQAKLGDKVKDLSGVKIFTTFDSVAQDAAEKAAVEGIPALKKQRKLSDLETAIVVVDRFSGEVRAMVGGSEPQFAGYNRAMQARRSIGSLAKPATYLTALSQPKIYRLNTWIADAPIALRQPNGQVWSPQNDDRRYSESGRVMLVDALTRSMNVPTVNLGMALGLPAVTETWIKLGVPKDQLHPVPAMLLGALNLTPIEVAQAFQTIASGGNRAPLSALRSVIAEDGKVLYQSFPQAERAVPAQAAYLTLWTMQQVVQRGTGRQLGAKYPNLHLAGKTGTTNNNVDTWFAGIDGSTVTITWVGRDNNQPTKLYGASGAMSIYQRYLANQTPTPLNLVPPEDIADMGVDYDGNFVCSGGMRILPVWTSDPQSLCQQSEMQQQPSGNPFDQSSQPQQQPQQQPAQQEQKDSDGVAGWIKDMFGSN

[2] = tested on: engineered strain of Escherichia coli harboring CTX-M15; test: microbe, parasite or virus in culture; format: cell-based; conditions: Escherichia coli, read-out: Microbiological Activity (MIC in mg/L), E. coli DH5α/pLBII-CTX-M15, engineered strain producing CTX-M15
K. pneumoniae 848844 = test: microbe, parasite or virus in culture; format: cell-based, Klebsiella pneumoniae; conditions: Klebsiella pneumoniae; K. pneumoniae 848844 producing SHV-11 and KPC-2; read-out: MIC K. pneumoniae 848844
How it was run: (§1)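 Visual MIC readout after 16-20 h at 37° C in CLSI-format microdilution. Compounds tested as 2-fold series against a 5×10^5 CFU/mL inoculum in cation-supplemented Mueller-Hinton broth.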

E. coli PBP2 = E. coli PBP2 (Escherichia coli (strain K12), UniProt P0AD65); test: E. coli PBP2 Bocillin-FL fluorescence polarization competition binding assay; conditions: fluorescence polarization competition binding with Bocillin-FL; read-out: E. coli K12 PBP2 Potency (EC50)
E. coli PBP2, sequence (P0AD65 whole entry): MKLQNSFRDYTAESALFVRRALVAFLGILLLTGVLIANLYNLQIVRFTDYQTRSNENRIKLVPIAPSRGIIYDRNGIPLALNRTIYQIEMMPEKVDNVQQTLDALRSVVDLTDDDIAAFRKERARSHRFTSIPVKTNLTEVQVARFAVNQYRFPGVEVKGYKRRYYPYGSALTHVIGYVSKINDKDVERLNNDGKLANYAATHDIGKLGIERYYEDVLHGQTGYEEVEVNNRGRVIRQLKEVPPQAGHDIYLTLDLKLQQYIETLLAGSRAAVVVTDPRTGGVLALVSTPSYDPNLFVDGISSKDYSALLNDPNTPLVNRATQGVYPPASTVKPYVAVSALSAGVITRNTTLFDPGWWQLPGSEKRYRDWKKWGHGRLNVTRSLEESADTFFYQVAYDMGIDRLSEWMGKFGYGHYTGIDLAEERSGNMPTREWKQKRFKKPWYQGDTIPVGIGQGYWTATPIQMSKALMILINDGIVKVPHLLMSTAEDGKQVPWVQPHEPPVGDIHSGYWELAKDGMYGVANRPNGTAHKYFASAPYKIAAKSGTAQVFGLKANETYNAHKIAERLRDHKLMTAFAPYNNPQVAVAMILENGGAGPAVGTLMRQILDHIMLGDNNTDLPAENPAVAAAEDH
Text: To determine the ability of boronic acid-based test PBP inhibitors to bind Penicillin Binding Proteins (PBPs), Bocillin-FL (fluorescently-labeled penicillin V; ThermoFisher Scientific) was used in a fluorescence polarization (FP) competition binding assay to assess inhibitor binding to PBP2, PBP3 or PBP4 from Escherichia coli. PBPs were cloned and purified as described previously (King, D. T, et al., ACS Infectious Diseases 2015, 1, 175-184). To establish assay conditions for competition binding, an enzyme titration/saturation binding experiment was initially performed. Bocillin-FL was prepared at 0.2 μM in a buffer comprised of 50 mM Hepes (pH 8.0), 300 mM NaCl and 5% (v/v) glycerol. Saturation binding was performed by mixing 40 μl of PBP solutions ranging in concentrations from 0-12 μM with 40 μl of the 0.2 μM Bocillin-FL solution, in individual wells of a black 384-well microplate. FP was measured immediately upon mixing (Excitation, 490 nm; Emission, 520 nm; g-factor, 0.96), using a Cytation3 (BioTek) microplate reader and measured continuously for up to 120 minutes. […] For all PBPs the FP signal approached saturation with 1.5 μM PBP (final concentration). […] Assays (80 μl final volume) were performed with PBPs at a final concentration of 1.5 μM, Bocillin-FL at 0.1 μM and beta-lactam concentrations that ranged from 0-1000 μM. […] Bocillin-FL was added and the FP immediately measured for 60 minutes (90 minutes for PBP2). The beta-lactam potency was reported as the concentration of beta-lactam required to reduce binding of Bocillin-FL by […] (EC50). […] Binding assays for boronic acid PBP inhibitors were performed in an identical fashion.

E. coli ATCC 25922 = test: Broth microdilution MIC, E. coli ATCC 25922; format: cell-based; conditions: Escherichia coli, ATCC25922; E. coli ATCC 25922, broth microdilution; read-out: MIC E. coli 25922
How it was run: as §1

E. coli AG100 = test: Broth microdilution MIC, E. coli AG100 (wild-type parent); format: cell-based; conditions: Escherichia coli; wild-type parent E. coli AG100, broth microdilution; read-out: MIC E. coli AG100
How it was run: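 Broth microdilution in cation-supplemented Mueller-Hinton broth, 2-fold serial compound dilutions, inoculum 5×10^5 CFU/mL from 3-5 h log culture.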

K. pneumoniae UMM = test: microbe, parasite or virus in culture; format: cell-based; conditions: Klebsiella pneumoniae; K. pneumoniae UMM producing SHV-5 and KPC-2; read-out: MIC K. pneumoniae UMM
How it was run: as §1

K. pneumoniae SI-117 = test: microbe, parasite or virus in culture; format: cell-based; conditions: Klebsiella pneumoniae, SI117, read-out: MIC K. pneumoniae SI-117
How it was run: as §1

E. coli 901C = test: microbe, parasite or virus in culture; format: cell-based; conditions: Escherichia coli; hyper-permeable E. coli 901C, broth microdilution; read-out: MIC E. coli 901C
How it was run: as §1

E. coli D22 = test: microbe, parasite or virus in culture; format: cell-based; conditions: Escherichia coli; hyper-permeable E. coli D22, broth microdilution; read-out: MIC E. coli D22
How it was run: as §1

E. coli AG100A = test: microbe, parasite or virus in culture; format: cell-based; conditions: Escherichia coli, read-out: MIC E. coli AG100A
How it was run: as §1

[3] = fluorescence polarization competition binding with Bocillin-FL, read-out: E. coli K12 PBP3 Potency

Structure (SMILES): CCN1CCN(C(=O)N[C@@H](CC(=O)O)C(=O)N[C@H]2Cc3cccc(C(=O)O)c3OB2O)C(=O)C1=O [Example 24, (R)-3-((S)-3-carboxy-2-(4-ethyl-2,3-dioxopiperazine-1-carboxamido)propanamido)-2-hydroxy-3,4-dihydro-2H-benzo[e][1,2]oxaborinine-8-carboxylic acid]
- MIC [1]: > 512 mg/L
- EC50 (E. coli PBP3): > 500 µM
- EC50 (E. coli PBP1b): > 100 µM
- MIC [2]: > 512 mg/L

Structure (SMILES): CCN1CCN(C(=O)NC(C(=O)N[C@H]2Cc3cccc(C(=O)O)c3OB2O)c2cc(OC)c(O)c(OC)c2)C(=O)C1=O (stereo partly drawn) [Example 29, (3R)-3-(2-(4-ethyl-2,3-dioxopiperazine-1-carboxamido)-2-(4-hydroxy-3,5-dimethoxyphenyl)acetamido)-2-hydroxy-3,4-dihydro-2H-benzo[e][1,2]oxaborinine-8-carboxylic acid]
- MIC [1]: 128 to 256 mg/L (≈ 219 to 438 µM)
- EC50 (E. coli PBP3; [3]): > 500 µM
- EC50 (E. coli PBP1b): > 100 µM
- MIC [2]: 128 to 256 mg/L (≈ 219 to 438 µM)

Structure (SMILES): CCN1CCN(C(=O)NC(C(=O)N[C@H]2Cc3cccc(C(=O)O)c3OB2O)c2cc(O)c(O)c(O)c2)C(=O)C1=O (stereo partly drawn) [Example 31, (3R)-3-(2-(4-ethyl-2,3-dioxopiperazine-1-carboxamido)-2-(3,4,5-trihydroxyphenyl)acetamido)-2-hydroxy-3,4-dihydro-2H-benzo[e][1,2]oxaborinine-8-carboxylic acid]
- MIC [1]: > 512 mg/L
- EC50 (E. coli PBP3): 30 to 500 µM
- EC50 (E. coli PBP1b): 10 to 100 µM
- MIC [2]: > 512 mg/L

Structure (SMILES): CCN1CCN(C(=O)NCC(NC(=O)N2CCN(CC)C(=O)C2=O)C(=O)N[C@H]2Cc3cccc(C(=O)O)c3OB2O)C(=O)C1=O (stereo partly drawn) [Example 33, (3R)-3-(2,3-bis(4-ethyl-2,3-dioxopiperazine-1-carboxamido)propanamido)-2-hydroxy-3,4-dihydro-2H-benzo[e][1,2]oxaborinine-8-carboxylic acid]
- MIC [1]: > 512 mg/L
- EC50 (E. coli PBP3): > 500 µM
- EC50 (E. coli PBP1b): < 10 µM
- MIC [2]: > 512 mg/L

Structure (SMILES): CCN1CCN(C(=O)NC(CNC(=O)c2ccc(O)c(O)c2)C(=O)N[C@H]2Cc3cccc(C(=O)O)c3OB2O)C(=O)C1=O (stereo partly drawn) [Example 35, (3R)-3-(3-(3,4-dihydroxybenzamido)-2-(4-ethyl-2,3-dioxopiperazine-1-carboxamido)propanamido)-2-hydroxy-3,4-dihydro-2H-benzo[e][1,2]oxaborinine-8-carboxylic acid]
- MIC [1]: > 512 mg/L
- EC50 (E. coli PBP3): > 500 µM
- EC50 (E. coli PBP1b): < 10 µM
- MIC [2]: > 512 mg/L

Structure (SMILES): CCN1CCN(C(=O)NC(CNC(=O)c2cccc(O)c2O)C(=O)N[C@H]2Cc3cccc(C(=O)O)c3OB2O)C(=O)C1=O (stereo partly drawn) [Example 36, (3R)-3-(3-(2,3-dihydroxybenzamido)-2-(4-ethyl-2,3-dioxopiperazine-1-carboxamido)propanamido)-2-hydroxy-3,4-dihydro-2H-benzo[e][1,2]oxaborinine-8-carboxylic acid]
- MIC [1]: > 512 mg/L
- EC50 (E. coli PBP3): > 500 µM
- EC50 (E. coli PBP1b): < 10 µM
- MIC [2]: > 512 mg/L

Structure (SMILES): CCN1CCN(C(=O)NC(C(=O)N[C@H]2Cc3cccc(C(=O)O)c3OB2O)c2ccc(O)nc2)C(=O)C1=O (stereo partly drawn) [Example 41, (3R)-3-(2-(4-ethyl-2,3-dioxopiperazine-1-carboxamido)-2-(6-hydroxypyridin-3-yl)acetamido)-2-hydroxy-3,4-dihydro-2H-benzo[e][1,2]oxaborinine-8-carboxylic acid]
- MIC [1]: 32 to 64 mg/L (≈ 60.9 to 122 µM)
- EC50 (E. coli PBP3): 30 to 500 µM
- EC50 (E. coli PBP1b): < 10 µM
- MIC [2]: 32 to 64 mg/L (≈ 60.9 to 122 µM)

Structure (SMILES): C[C@@H](O)[C@@H](NC(=O)N1CCN(CCF)C(=O)C1=O)C(=O)N[C@H]1Cc2ccc(F)c(C(=O)O)c2OB1O [Example 126, (R)-7-fluoro-3-((2R,3R)-2-(4-(2-fluoroethyl)-2,3-dioxopiperazine-1-carboxamido)-3-hydroxybutanamido)-2-hydroxy-3,4-dihydro-2H-benzo[e][1,2]oxaborinine-8-carboxylic acid]
- MIC (K. pneumoniae 848844): 32 to 64 µg/mL
- EC50 (E. coli PBP2): > 500 µM
- MIC (E. coli ATCC 25922): 8 to 16 µg/mL
- MIC (E. coli AG100): 8 to 16 µg/mL
- EC50 (E. coli PBP3; [3]): > 500 µM
- MIC (K. pneumoniae UMM): 8 to 16 µg/mL
- MIC (K. pneumoniae SI-117): 8 to 16 µg/mL
- MIC (E. coli 901C): 2 to 4 µg/mL
- MIC (E. coli D22): 2 to 4 µg/mL
- MIC (E. coli AG100A): 8 to 16 µg/mL

Structure (SMILES): CCN1CCN(C(=O)NC(C(=O)N[C@H]2Cc3cccc(C(=O)O)c3OB2O)c2ccc(N)nc2)C(=O)C1=O (stereo partly drawn) [Example 148, (3R)-3-(2-(6-aminopyridin-3-yl)-2-(4-ethyl-2,3-dioxopiperazine-1-carboxamido)acetamido)-2-hydroxy-3,4-dihydro-2H-benzo[e][1,2]oxaborinine-8-carboxylic acid]
- MIC (K. pneumoniae 848844): 32 to 64 µg/mL
- EC50 (E. coli PBP2): > 500 µM
- MIC (E. coli ATCC 25922): 8 to 16 µg/mL
- MIC (E. coli AG100): 32 to 64 µg/mL
- EC50 (E. coli PBP3): 30 to 500 µM
- MIC (K. pneumoniae UMM): 32 to 64 µg/mL
- MIC (K. pneumoniae SI-117): 32 to 64 µg/mL
- MIC (E. coli 901C): 0.5 to 1 µg/mL
- MIC (E. coli D22): 2 to 4 µg/mL
- MIC (E. coli AG100A): 2 to 4 µg/mL

Structure (SMILES): CCN1CCN(C(=O)NC(C(=O)N[C@H]2Cc3cccc(C(=O)O)c3OB2O)c2ccc(NS(C)(=O)=O)cn2)C(=O)C1=O (stereo partly drawn) [Example 154, (3R)-3-(2-(4-ethyl-2,3-dioxopiperazine-1-carboxamido)-2-(5-(methylsulfonamido)pyridin-2-yl)acetamido)-2-hydroxy-3,4-dihydro-2H-benzo[e][1,2]oxaborinine-8-carboxylic acid]
- MIC (K. pneumoniae 848844): > 128 µg/mL
- EC50 (E. coli PBP2): 30 to 500 µM
- MIC (E. coli ATCC 25922): > 128 µg/mL
- MIC (E. coli AG100): > 128 µg/mL
- EC50 (E. coli PBP3): 30 to 500 µM
- MIC (K. pneumoniae UMM): > 128 µg/mL
- MIC (K. pneumoniae SI-117): > 128 µg/mL
- MIC (E. coli 901C): 0.5 to 1 µg/mL
- MIC (E. coli D22): 8 to 16 µg/mL
- MIC (E. coli AG100A): 8 to 16 µg/mL
